For orientation: IC50 means the concentration needed to halve the response being measured. A higher IC50 goes with weaker potency.

From patent US11771709B2, “ALK protein degradation agent and anti-tumor application thereof” (ShanghaiTech University, priority 2017, dated 2023) come the findings set out here.

Structures are written as SMILES.

The subject of one experiment is SR (NPM-ALK) cells. Kind of experiment: Growth inhibition IC50 in ALCL SR cells (CCK8/WST, 72 hours). In kind it is cell-based.
Conditions: not given
For `CCc1cc2c(cc1N1CCNCC1)C(C)(C)c1[nH]c3cc(C#N)ccc3c1C2=O` [Alectinib Analogue A, 9-ethyl-6,6-dimethyl-11-oxo-8-(piperazin-1-yl)-6,11-dihydro-5H-benzo[b]carbazole-3-carbonitrile, reference compound], the IC50 was 2.4 nM.

The same experiment, now with this note: 72 h, SR cells, WST; Brigatinib-based PROTAD molecules (Table 3).
`COc1cc(N2CCC(NC(=O)CCOCCOCCOCCOCCOCCNc3cccc4c3C(=O)N(C3CCC(=O)NC3=O)C4=O)CC2)ccc1Nc1ncc(Cl)c(Nc2ccccc2P(C)(C)=O)n1` (centres unmarked) [SIAIS151117, N-(1-(4-((5-chloro-4-((2-(dimethylphosphoryl)phenyl)amino)pyrimidin-2-yl)amino)-3-methoxyphenyl)piperidin-4-yl)-1-((2-(2,6-dioxopiperidin-3-yl)-1,3-dioxoisoindolin-4-yl)amino)-3,6,9,12,15-pentaoxaoctadecan-18-amide] displayed an IC50 of 30.9 ± 21.3 nM.

The experiment is the same for the next values; noted with them: SR cells, WST, 72 hours; Brigatinib-based PROTAD molecules (Table 3).
`COc1cc(N2CCNCC2)ccc1Nc1ncc(Cl)c(Nc2ccccc2P(C)(C)=O)n1` [Brigatinib Analogue A(SIAIS1197135), (2-((5-chloro-2-((2-methoxy-4-(piperazin-1-yl)phenyl)amino)pyrimidin-4-yl)amino)phenyl) dimethylphosphine oxide] showed an IC50 of 1.6 ± 1 nM.

Staying with this experiment, now noted: SR cells, WST; Alectinib based ALK PROTAD compounds (Table 4).
The compound `CCc1cc2c(cc1N1CCC(N)CC1)C(C)(C)c1[nH]c3cc(C#N)ccc3c1C2=O` [Alectinib Analogue B(SIAIS184193), 8-(4-aminopiperidin-1-yl)-9-ethyl-6,6-dimethyl-11-oxo-6,11-dihydro-5H-benzo[b]carbazole-3-carbonitrile] gave an IC50 of 14.7 nM.

With `CCc1cc2c(cc1N1CCC(N3CCNCC3)CC1)C(C)(C)c1[nH]c3cc(C#N)ccc3c1C2=O` [Alectinib Analogue C(SIAIS184192), 9-ethyl-6,6-dimethyl-11-oxo-8-(4-(piperazin-1-yl)piperidin-1-yl)-6,11-dihydro-5H-benzo[b]carbazole-3-carbonitrile], the midpoint of inhibition, the IC50, lay at 19.1 nM.

As for `CCc1cc2c(cc1N1CCN(C(=O)CCNc3cccc4c3C(=O)N(C3CCC(=O)NC3=O)C4=O)CC1)C(C)(C)c1[nH]c3cc(C#N)ccc3c1C2=O` (centres unmarked) [SIAIS164029, 8-(4-(3-((2-(2,6-dioxopiperidin-3-yl)-1,3-dioxoisoindolin-4-yl)amino)propanoyl)piperazin-1-yl)-9-ethyl-6,6-dimethyl-11-oxo-6,11-dihydro-5H-benzo[b]carbazole-3-carbonitrile], the IC50 was determined as 27.3 nM.

`CCc1cc2c(cc1N1CCN(C(=O)CCOCCOCCOCCC(=O)N[C@H](C(=O)N3C[C@H](O)C[C@H]3C(=O)NCc3ccc(-c4scnc4C)cc3)C(C)(C)C)CC1)C(C)(C)c1[nH]c3cc(C#N)ccc3c1C2=O` [SIAIS164037, (2S,4R)-1-((S)-2-(tert-butyl)-16-(4-(3-cyano-9-ethyl-6,6-dimethyl-11-oxo-6,11-dihydro-5H-benzo[b]carbazol-8-yl)piperazin-1-yl)-4,16-dioxo-7,10,13-trioxa-3-azahexadecanoyl)-4-hydroxy-N-(4-(4-methylthiazol-5-yl)benzyl)pyrrolidine-2-carboxamide] came in with an IC50 of 153 nM.

As to `CCc1cc2c(cc1N1CCN(C(=O)CCCCC(=O)N[C@H](C(=O)N3C[C@H](O)C[C@H]3C(=O)NCc3ccc(-c4scnc4C)cc3)C(C)(C)C)CC1)C(C)(C)c1[nH]c3cc(C#N)ccc3c1C2=O` [SIAIS164095, (2S,4R)-1-((S)-2-(6-(4-(3-cyano-9-ethyl-6,6-dimethyl-11-oxo-6,11-dihydro-5H-benzo[b]carbazol-8-yl)piperazin-1-yl)-6-oxohexanamido)-3,3-dimethylbutanoyl)-4-hydroxy-N-(4-(4-methylthiazol-5-yl)benzyl)pyrrolidine-2-carboxamide], the IC50 came to 71.3 nM.

For the compound `CCc1cc2c(cc1N1CCN(C(=O)CCCCCC(=O)N[C@H](C(=O)N3C[C@H](O)C[C@H]3C(=O)NCc3ccc(-c4scnc4C)cc3)C(C)(C)C)CC1)C(C)(C)c1[nH]c3cc(C#N)ccc3c1C2=O` [SIAIS164096, (2S,4R)-1-((S)-2-(7-(4-(3-cyano-9-ethyl-6,6-dimethyl-11-oxo-6,11-dihydro-5H-benzo[b]carbazol-8-yl)piperazin-1-yl)-7-oxoheptanamido)-3,3-dimethylbutanoyl)-4-hydroxy-N-(4-(4-methylthiazol-5-yl)benzyl)pyrrolidine-2-carboxamide], the 50% inhibitory concentration (IC50) is 79.5 nM.

`CCc1cc2c(cc1N1CCC(N3CCN(C(=O)CNc4cccc5c4C(=O)N(C4CCC(=O)NC4=O)C5=O)CC3)CC1)C(C)(C)c1[nH]c3cc(C#N)ccc3c1C2=O` (centres unmarked) [SIAIS184194, 8-(4-(4-((2-(2,6-dioxopiperidin-3-yl)-1,3-dioxoisoindolin-4-yl)glycyl)piperazin-1-yl)piperidin-1-yl)-9-ethyl-6,6-dimethyl-11-oxo-6,11-dihydro-5H-benzo[b]carbazole-3-carbonitrile] displayed an IC50 of 24.2 nM.

On to `CCc1cc2c(cc1N1CCC(NC(=O)CNc3cccc4c3C(=O)N(C3CCC(=O)NC3=O)C4=O)CC1)C(C)(C)c1[nH]c3cc(C#N)ccc3c1C2=O` (centres unmarked) [SIAIS219001, N-(1-(3-cyano-9-ethyl-6,6-dimethyl-11-oxo-6,11-dihydro-5H-benzo[b]carbazol-8-yl)piperidin-4-yl)-2-((2-(2,6-dioxopiperidin-3-yl)-1,3-dioxoisoindolin-4-yl)amino)acetamide], for which the IC50 worked out at 21.3 nM.

In the case of `CCc1cc2c(cc1N1CCC(N3CCN(C(=O)CCCNc4cccc5c4C(=O)N(C4CCC(=O)NC4=O)C5=O)CC3)CC1)C(C)(C)c1[nH]c3cc(C#N)ccc3c1C2=O` (centres unmarked) [SIAIS219003, 8-(4-(4-(4-((2-(2,6-dioxopiperidin-3-yl)-1,3-dioxoisoindolin-4-yl)amino)butanoyl)piperazin-1-yl)piperidin-1-yl)-9-ethyl-6,6-dimethyl-11-oxo-6,11-dihydro-5H-benzo[b]carbazole-3-carbonitrile], it took 21.8 nM to reach half-maximal inhibition (IC50).

`CCc1cc2c(cc1N1CCC(N3CCN(C(=O)CCCCCNc4cccc5c4C(=O)N(C4CCC(=O)NC4=O)C5=O)CC3)CC1)C(C)(C)c1[nH]c3cc(C#N)ccc3c1C2=O` (centres unmarked) [SIAIS219004, 8-(4-(4-(6-((2-(2,6-dioxopiperidin-3-yl)-1,3-dioxoisoindolin-4-yl)amino)hexanoyl)piperazin-1-yl)piperidin-1-yl)-9-ethyl-6,6-dimethyl-11-oxo-6,11-dihydro-5H-benzo[b]carbazole-3-carbonitrile] registered an IC50 of 36.8 nM.

In turn, `CCc1cc2c(cc1N1CCC(NC(=O)CCCNc3cccc4c3C(=O)N(C3CCC(=O)NC3=O)C4=O)CC1)C(C)(C)c1[nH]c3cc(C#N)ccc3c1C2=O` (centres unmarked) [SIAIS219010, N-(1-(3-cyano-9-ethyl-6,6-dimethyl-11-oxo-6,11-dihydro-5H-benzo[b]carbazol-8-yl)piperidin-4-yl)-4-((2-(2,6-dioxopiperidin-3-yl)-1,3-dioxoisoindolin-4-yl)amino)butanamide] showed an IC50 of 31.1 nM.

In turn, `CCc1cc2c(cc1N1CCC(NC(=O)CCCCCNc3cccc4c3C(=O)N(C3CCC(=O)NC3=O)C4=O)CC1)C(C)(C)c1[nH]c3cc(C#N)ccc3c1C2=O` (centres unmarked) [SIAIS219011, N-(1-(3-cyano-9-ethyl-6,6-dimethyl-11-oxo-6,11-dihydro-5H-benzo[b]carbazol-8-yl)piperidin-4-yl)-6-((2-(2,6-dioxopiperidin-3-yl)-1,3-dioxoisoindolin-4-yl)amino)hexanamide] returned an IC50 of 49.9 nM.

In the case of `CCc1cc2c(cc1N1CCC(N3CCN(C(=O)CCCCC(=O)N[C@H](C(=O)N4C[C@H](O)C[C@H]4C(=O)NCc4ccc(-c5scnc5C)cc4)C(C)(C)C)CC3)CC1)C(C)(C)c1[nH]c3cc(C#N)ccc3c1C2=O` [SIAIS219015, (2S,4R)-1-((S)-2-(6-(4-(1-(3-cyano-9-ethyl-6,6-dimethyl-11-oxo-6,11-dihydro-5H-benzo[b]carbazol-8-yl)piperidin-4-yl)piperazin-1-yl)-6-oxohexanamido)-3,3-dimethylbutanoyl)-4-hydroxy-N-(4-(4-methylthiazol-5-yl)benzyl)pyrrolidine-2-carboxamide], the IC50 stood at 110 nM.

Take `CCc1cc2c(cc1N1CCC(N3CCN(C(=O)CCCCCCCCC(=O)N[C@H](C(=O)N4C[C@H](O)C[C@H]4C(=O)NCc4ccc(-c5scnc5C)cc4)C(C)(C)C)CC3)CC1)C(C)(C)c1[nH]c3cc(C#N)ccc3c1C2=O` [SIAIS219016, (2S,4R)-1-((S)-2-(10-(4-(1-(3-cyano-9-ethyl-6,6-dimethyl-11-oxo-6,11-dihydro-5H-benzo[b]carbazol-8-yl)piperidin-4-yl)piperazin-1-yl)-10-oxodecanamido)-3,3-dimethylbutanoyl)-4-hydroxy-N-(4-(4-methylthiazol-5-yl)benzyl)pyrrolidine-2-carboxamide]: the IC50 stood at 80.8 nM.

`CCc1cc2c(cc1N1CCC(N3CCN(C(=O)CCOCCOCCNc4cccc5c4C(=O)N(C4CCC(=O)NC4=O)C5=O)CC3)CC1)C(C)(C)c1[nH]c3cc(C#N)ccc3c1C2=O` (centres unmarked) [SIAIS219018, 8-(4-(4-(3-(2-(2-((2-(2,6-dioxopiperidin-3-yl)-1,3-dioxoisoindolin-4-yl)amino)ethoxy)ethoxy)propanoyl)piperazin-1-yl)piperidin-1-yl)-9-ethyl-6,6-dimethyl-11-oxo-6,11-dihydro-5H-benzo[b]carbazole-3-carbonitrile] returned an IC50 of 13.3 nM.

Regarding `CCc1cc2c(cc1N1CCC(N3CCN(C(=O)CCOCCOCCOCCOCCNc4cccc5c4C(=O)N(C4CCC(=O)NC4=O)C5=O)CC3)CC1)C(C)(C)c1[nH]c3cc(C#N)ccc3c1C2=O` (centres unmarked) [SIAIS219019, 8-(4-(4-(1-((2-(2,6-dioxopiperidin-3-yl)-1,3-dioxoisoindolin-4-yl)amino)-3,6,9,12-tetraoxapentadecan-15-oyl)piperazin-1-yl)piperidin-1-yl)-9-ethyl-6,6-dimethyl-11-oxo-6,11-dihydro-5H-benzo[b]carbazole-3-carbonitrile], the IC50 amounted to 38.3 nM.

As for `CCc1cc2c(cc1N1CCC(NC(=O)CCCCC(=O)N[C@H](C(=O)N3C[C@H](O)C[C@H]3C(=O)NCc3ccc(-c4scnc4C)cc3)C(C)(C)C)CC1)C(C)(C)c1[nH]c3cc(C#N)ccc3c1C2=O` [SIAIS219020, N1-(1-(3-cyano-9-ethyl-6,6-dimethyl-11-oxo-6,11-dihydro-5H-benzo[b]carbazol-8-yl)piperidin-4-yl)-N6-((S)-1-((2S,4R)-4-hydroxy-2-((4-(4-methylthiazol-5-yl)benzyl)carbamoyl)pyrrolidin-1-yl)-3,3-dimethyl-1-oxobutan-2-yl)adipamide], the IC50 came to 30.3 nM.
